Test results from patent publication US20090062294A1, “HETEROARYL-SUBSTITUTED UREA MODULATORS OF FATTY ACID AMIDE HYDROLASE” (priority 2007, published 2009).
Where a name gives a salt, the structure may show the parent alone.

How the values were obtained:
[1] = test system: neuropathic pain; conditions: rats; cited from earlier work
[2] = test system: acute thermal nociception; conditions: rats; cited from earlier work
[3] = test system: mechanical (tactile) allodynia in the left hind paw; assay: Assay Method 3: Rat Mild Thermal Injury Model (MTI), mechanical allodynia; format: in vivo, Sprague-Dawley rats; conditions: 0.5 h after administration
Description: Assay Method 3—Rat Mild Thermal Injury Model (MTI)
Pathogen-free, male albino Sprague-Dawley rats were purchased from Harlan Industries (San Diego, Calif.) and maintained on a 12-h light/dark cycle (lights on at 9:00 AM and off at 9:00 PM) in a climate-controlled room. Food and water were available ad libitum up to the time of the testing.
Under isoflurane/oxygen anesthesia, a first-degree burn injury (erythema without blistering) was produced as follows: the plantar surface of the rat's left hind paw was placed on water-dampened 56° C. hotplate for 20 seconds and steady contact was maintained by applying an 84 g weight to the dorsum (after Nozaki-Taguchi & Yaksh, Neurosci. Lett. 1998, 254, 25-28).
Mild thermal injury results in mechanical allodynia in the left hind paw. Mechanical (tactile) allodynia was assessed by determining the median threshold at which the affected paw was withdrawn from graded stimuli (von Frey filaments ranging from 0.41 to 15.8 g) applied perpendicularly with sufficient force to bend slightly and held for 2-3 seconds against the proximal half of the third and fourth toe surfaces through wire-mesh observation cages. Paw flinching during or immediately following the removal of the stimulus was considered a positive response. A paw withdrawal threshold (PWT) was determined by sequentially increasing and decreasing the stimulus strength and analyzing withdrawal data using an adaptation of the Dixon up-down method, as described (Chaplan et al., J. Neurosci. 1994, 53, 55-63). Rats were included in the study only if their baseline PWT was 3.1623 g or lower (4.5 logarithmically).
Rats were tested for pre-injury thresholds prior to mild thermal injury and again for baseline thresholds after development of mechanical allodynia. Immediately after baseline measurement, test compound or vehicle was administered orally and the measurement was repeated at 0.5 h after administration. The tactile thresholds (log value) were converted to percent of a maximum possible effect ( %MPE): % MPE=[Threshold(t)−Threshold(baseline)]*100/[Threshold(pre)−Threshold(baseline)], where t=post-treatment time. Data were expressed as mean±standard error of the mean (S.E.M.). Statistical analysis was performed using two-way ANOVA with repeated measures with a significance level of p<0.05.
Results for compounds tested in this assay are presented in Table 2, as an average of results obtained. Compounds were tested in free base, hydrochloride salt, and/or trifluoroacetic acid salt forms.

[4] = target: T1, rat FAAH (Rattus norvegicus, UniProt P97612); assay: Assay Method 2: FAAH assay, 3H-anandamide hydrolysis in homogenate of SK-N-MC cells transfected with rat FAAH; format: biochemical; conditions: average of results, > = solubility limit or highest concentration tested
T1 sequence (P97612 1-579): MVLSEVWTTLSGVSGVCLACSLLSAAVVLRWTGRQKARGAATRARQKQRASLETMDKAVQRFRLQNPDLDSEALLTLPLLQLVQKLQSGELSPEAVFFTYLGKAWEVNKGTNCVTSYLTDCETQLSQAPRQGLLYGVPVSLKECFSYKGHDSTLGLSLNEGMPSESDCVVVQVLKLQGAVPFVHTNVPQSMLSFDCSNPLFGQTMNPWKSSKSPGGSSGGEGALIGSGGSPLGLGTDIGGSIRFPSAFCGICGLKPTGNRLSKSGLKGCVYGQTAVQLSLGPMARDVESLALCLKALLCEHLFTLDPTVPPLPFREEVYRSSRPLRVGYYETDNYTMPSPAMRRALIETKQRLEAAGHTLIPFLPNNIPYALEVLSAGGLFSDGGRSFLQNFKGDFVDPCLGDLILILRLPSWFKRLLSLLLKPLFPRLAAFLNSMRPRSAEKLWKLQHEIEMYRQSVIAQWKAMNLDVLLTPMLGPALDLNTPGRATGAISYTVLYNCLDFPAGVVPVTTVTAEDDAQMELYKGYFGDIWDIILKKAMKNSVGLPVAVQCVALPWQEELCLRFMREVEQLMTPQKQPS
How it was run: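 Read-out is scintillation counting of [3H]-ethanolamine passing through activated charcoal, after 1 h at rt with 80 nM final [3H]-AEA. Enzyme source: lysate of G418-selected SK-N-MC clones expressing rat FAAH, homogenized in Tris/EDTA/glycerol/0.02% Triton buffer, pH 9.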

[5] = test system: thermal nociception; conditions: rats; cited from earlier work
[6] = target: T2, FAAH (Homo sapiens, UniProt O00519); conditions: cited from earlier work
T2 sequence (O00519 1-579): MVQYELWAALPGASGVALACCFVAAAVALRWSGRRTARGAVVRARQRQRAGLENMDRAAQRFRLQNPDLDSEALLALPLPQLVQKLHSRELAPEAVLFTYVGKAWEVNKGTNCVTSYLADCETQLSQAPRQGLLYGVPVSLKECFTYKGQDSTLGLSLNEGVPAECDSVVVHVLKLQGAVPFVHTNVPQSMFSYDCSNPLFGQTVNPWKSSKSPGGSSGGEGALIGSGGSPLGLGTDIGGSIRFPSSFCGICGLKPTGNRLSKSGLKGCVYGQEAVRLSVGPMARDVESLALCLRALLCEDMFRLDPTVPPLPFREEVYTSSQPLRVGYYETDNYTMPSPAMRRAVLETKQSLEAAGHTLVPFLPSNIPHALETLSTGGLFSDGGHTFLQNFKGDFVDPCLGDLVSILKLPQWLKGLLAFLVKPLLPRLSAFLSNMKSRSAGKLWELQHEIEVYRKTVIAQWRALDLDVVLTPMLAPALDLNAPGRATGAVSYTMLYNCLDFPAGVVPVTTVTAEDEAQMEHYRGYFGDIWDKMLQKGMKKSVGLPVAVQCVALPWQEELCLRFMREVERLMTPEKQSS

[7] = test system: thermal nociception; conditions: rats; cited from earlier work; remark: listed apart in the source
[8] = test system: pain; conditions: rat; cited from earlier work
[9] = test system: anxiety; conditions: rats; cited from earlier work
[10] = test system: spasticity; conditions: model of multiple sclerosis; cited from earlier work
[11] = target: T2, FAAH; assay: Assay Method 1: FAAH assay, 3H-anandamide hydrolysis in homogenate of T84 cells or SK-N-MC cells transfected with human FAAH; format: biochemical; conditions: average of results, > = solubility limit or highest concentration tested
How it was run: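 Hydrolysis of ^3H-anandamide (80 nM final, added last) was measured over 1 h at rt, using test compound with homogenate of T84 cells or human FAAH-transfected SK-N-MC cells. The homogenization buffer was 125 mM Tris, 1 mM EDTA, 0.02% Triton X-100, pH 9. Unbound labelled ethanolamine was passed through charcoal filters and scintillation-counted.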

SMILES	IC50 [4] [nM]	IC50 [11] [nM]	further results
Cc1nc(-c2ccccc2)c(-c2ccccc2)n1CCCCCCNC(=O)Oc1ccccc1F [BMS-1]	–	–	analgesic effect in Chung spinal nerve ligation model [1]: analgesic effect; analgesic effect in Hargraves test [2]: analgesic effect
O=C(Nc1ccon1)N1CCN(Cc2cccc(Oc3ccc(Cl)cc3)c2)CC1 [Example 46, 4-[3-(4-Chloro-phenoxy)-benzyl]-piperazine-1-carboxylic acid isoxazol-3-ylamide trifluoroacetic acid salt]	–	–	% MPE ([3]; 6 mg/Kg p.o.): 0%
O=C(Nc1cnccn1)N1CCN(Cc2cccc(Oc3ccc(Cl)cc3)c2)CC1 [Example 58, 4-[3-(4-Chloro-phenoxy)-benzyl]-piperazine-1-carboxylic acid pyrazin-2-ylamide trifluoroacetic acid salt]	9	–	% MPE ([3]; 20 mg/Kg p.o., mean +/- S.E.M.): 52 +/− 7%
O=C(Nc1cccnn1)N1CCN(Cc2cccc(Oc3ccc(Cl)cc3)c2)CC1 [Example 246, 4-[3-(4-Chloro-phenoxy)-benzyl]-piperazine-1-carboxylic acid pyridazin-3-ylamide]	199	–	% MPE ([3]; 20 mg/Kg p.o., mean +/- S.E.M.): 32 +/− 3%
O=C(CCCCCCc1ccccc1)c1ncc(-c2ccccn2)o1 [OL-135]	–	–	analgesic activity in tail emersion test [5]: analgesic activity; inhibition of FAAH [6]: potent inhibitor; analgesic efficacy/activity in hot plate test [7]: analgesic activity
NC(=O)c1cccc(-c2cccc(OC(=O)NC3CCCCC3)c2)c1 [URB-597]	–	–	analgesic efficacy in formalin test [8]: analgesic efficacy; efficacy in zero plus maze model of anxiety [9]: efficacy; analgesic efficacy/activity in hot plate test [7]: analgesic efficacy
O=C(Nc1noc2ccccc12)N1CCN(Cc2cccc(Oc3ccc(Cl)cc3)c2)CC1 [Example 36, 4-[3-(4-Chloro-phenoxy)-benzyl]-piperazine-1-carboxylic acid benzo[d]isoxazol-3-ylamide trifluoroacetic acid salt]	10	–	% MPE ([3]; 20 mg/Kg p.o., mean +/- S.E.M.): 38 +/− 13%
CCCCCCCCCCCCCCCCS(=O)(=O)F [AM374]	–	–	spasticity in CREAE mice [10]: significantly reduce spasticity
O=C(Nc1ccc(Cl)nn1)N1CCN(Cc2cccc(Oc3ccc(Cl)c(Cl)c3)c2)CC1 [Example 43, 4-[3-(3,4-Dichloro-phenoxy)-benzyl]-piperazine-1-carboxylic acid (6-chloro-pyridazin-3-yl)-amide trifluoroacetic acid salt]	6	983	–
O=C(Nc1noc2ccccc12)N1CCN(Cc2ccc(Cl)c(OC(F)(F)F)c2)CC1 [Example 105, N-1,2-Benzisoxazol-3-yl-4-[4-chloro-3-(trifluoromethoxy)benzyl]-piperazine-1-carboxamide]	13	100	–
O=C(Nc1cnccn1)N1CCN(Cc2cc3ccccc3s2)CC1 [Example 218, 4-(1-Benzothiophen-2-ylmethyl)-N-pyrazin-2-ylpiperazine-1-carboxamide]	700	170	–
N#Cc1ccccc1COc1cccc(CN2CCN(C(=O)Nc3noc4ccccc34)CC2)c1 [Example 98, 4-[3-(2-Cyano-benzyloxy)-benzyl]-piperazine-1-carboxylic acid benzo[d]isoxazol-3-ylamide]	300	22	–
O=C(Nc1nn[nH]n1)N1CCN(Cc2ccc(Br)c(F)c2)CC1 [Example 168, 4-(4-Bromo-3-fluorobenzyl)-N-1H-tetrazol-5-ylpiperazine-1-carboxamide]	480	1200	–
O=C(Nc1cccc2nsnc12)N1CCN(Cc2cccc(Oc3ccc(Cl)c(Cl)c3)c2)CC1 [Example 38, 4-[3-(3,4-Dichloro-phenoxy)-benzyl]-piperazine-1-carboxylic acid benzo[1,2,5]thiadiazol-4-ylamide trifluoroacetic acid salt]	9	70	–
Cc1ccccc1CCc1cccc(CN2CCN(C(=O)Nc3noc4ccccc34)CC2)c1 [Example 94, 4-[3-(2-o-Tolyl-ethyl)-benzyl]-piperazine-1-carboxylic acid benzo[d]isoxazol-3-ylamide hydrochloride salt]	630	380	–
O=C(Nc1noc2ccccc12)N1CCN(Cc2cccc(Oc3ccc(OCC(F)(F)F)cc3)c2)CC1 [Example 35, 4-{3-[4-(2,2,2-Trifluoro-ethoxy)-phenoxy]-benzyl}-piperazine-1-carboxylic acid benzo[d]isoxazol-3-ylamide]	20	5	–
O=C(Nc1ccon1)N1CCN(Cc2cccc(Oc3ccc(Cl)c(Cl)c3)c2)CC1 [Example 47, 4-[3-(3,4-Dichloro-phenoxy)-benzyl]-piperazine-1-carboxylic acid isoxazol-3-ylamide trifluoroacetic acid salt]	66	1140	–
O=C(Nc1cccnn1)N1CCN(Cc2cccc(C#Cc3ccccc3Cl)c2)CC1 [Example 79, 4-{3-[(2-Chlorophenyl)ethynyl]benzyl}-N-pyridazin-3-ylpiperazine-1-carboxamide]	320	46	–
O=C(Nc1noc2ccccc12)N1CCC(Cc2ccc(F)cc2)CC1 [Example 22, 4-(4-Fluoro-benzyl)-piperidine-1-carboxylic acid benzo[d]isoxazol-3-ylamide]	77	108	–
O=C(Nc1cnccn1)N1CCN(Cc2cccc(Oc3ccc(OC(F)(F)F)cc3)c2)CC1 [Example 233, N-Pyrazin-2-yl-4-{3-[4-(trifluoromethoxy)phenoxy]benzyl}piperazine-1-carboxamide]	140	10	–
